Data: patent US6007823A, “Simmondsin concentrate from jojoba” (The United States of America as represented by the …, priority 1998, dated 1999)

What was measured:
[1] = statement without test; cited from earlier work
[2] = Solubility of didemethyl simmondsin in absolute ethanol; format: physicochemical
Experimental: DWE, 1 gram, was stirred 30 min with 20 ml of either acetone, acetonitrile,chloroform, methanol, water, ethanol, isopropanol, 95/5 isopropanol/water or 5/95 methanol/chloroform. Supernatant was filtered, dried, weighed, and analyzed for simmondsin and analogues. […] Both the amount of simmondsins extracted and their enrichment in the extract are important in choosing a selective solvent. Therefore, selectivity was calculated as enrichment times concentration for each component, simmondsin, simmondsin ferulate, demethylsimmondsin and didemethyl simmondsin as well as the total for all four components and plotted against solvent composition and solvent to solute ratio. For simmondsin, selectivity or SIMM-- X=[(concentration of simmondsin in extract)/(concentration of simmondsin in DWE)][weight of simmondsin in extract/weight of simmondsin in DWE].

chickens = conditions: Cokeleare et al. 1995; cited from earlier work
mice = conditions: Cokeleare et al. 1995; cited from earlier work
rats = conditions: Cokeleare et al. 1995; cited from earlier work

Structure (SMILES)	Bioactivity [1]	Solubility in absolute ethanol [2]	Food intake (chickens)	Food intake (mice)	Food intake (rats)
N#CC=C1C(OC2OC(CO)C(O)C(O)C2O)CC(O)C(O)C1O (centres unmarked) [didemethyl simmondsin]	non-bioactive	very limited	–	–	–
CO[C@H]1[C@@H](OC)C[C@@H](O[C@@H]2O[C@H](CO)[C@@H](O)[C@H](O)[C@H]2O)/C(=C\C#N)[C@@H]1O [simmondsin]	–	–	reduces food intake	reduces food intake	reduces food intake
